Test results as given in patent US20220031800A1, “PEPTIDES FOR TREATING NON-EXUDATIVE MACULAR DEGENERATION AND OTHER DISORDERS OF THE EYE” (Allegro Pharmaceuticals, LLC, priority 2019, published 2022).
Square brackets hold non-standard residues; d marks the D form. Peptide text beside a SMILES is read from it. Cya = N[C@@H](CS(=O)(=O)O)C(=O)O

Tested on: study eye of subjects with intermediate non-exudative AMD
Assay: SD-OCT Analysis 2 (thickness, volume, map coverage of retinal layers)
Assay type: in vivo, human
Conditions: change from baseline at Week 32
Description: Numerous study assessments were conducted at various time points throughout the study. Included among these study assessments were; refractive eye examinations, determinations of BCVA AND low-luminance BCVA, Lanthony D-15 color vision test, measurement of intraocular pressure (IOP), Indirect ophthalmoscopy/dilated fundus examinations and spectral-domain optical coherence tomography (SD-OCT). Also, blood and saliva samples were obtained from each subject for genetic analysis. The above-listed study assessments were performed at the time points indicated in Table 1, below: The OCT scans were analyzed by two (2) unrelated experts. In Analysis #2, the OCT images of study eyes were analyzed to determine mean thickness and mean volume of numerous retinal subfields and layer segments at baseline and at Week 12 for sham eyes and at baseline and at Week 32 for risuteganib eyes, to document any significant differences between groups of eyes based on baseline measurements or changes from baseline in those measurements. In addition to the quantitative analysis of OCT images, OCT Analysis #2 included qualitative assessment of the OCT images to identify GA, pseudodrusen, and disruption of the ELM and EZ layers. FIGS. 9A, 9B and 9C illustrate the level of varying pathology within the ELM based on quantitative mapping that were also assessed, with FIG. 9A (left) showing no ELM disruption, FIG. 9B (center) showing segmental disruption, and FIG. 9C showing diffuse disruption.

[1] = risuteganib nonresponder eyes, n = 12

C[C@@H](O)[C@H](NC(=O)[C@H](CS(=O)(=O)O)NC(=O)CNC(=O)[C@H](CCCNC(=N)N)NC(=O)CN)C(=O)N1CCC[C@H]1C(=O)O [risuteganib, Glycyl-L-arginylglycyl-3-sulfo-L-alanyl-L-threonyl-L-proline] (H-GRG[Cya]TP-OH)
Change in mean thickness, ONL-RPE foveal center (Risuteganib Responder eyes): 0.650 μm | Change in mean thickness, ONL-RPE mid subfield (Risuteganib Responder eyes): −6.561 μm | Change in mean thickness, RPE-BM central subfield (Risuteganib Responder eyes): −8.238 μm | Change in mean thickness, RPE-BM foveal center (Risuteganib Responder eyes): −12.512 μm | Change in mean thickness, RPE-BM mid subfield (Risuteganib Responder eyes): −5.287 μm | Change in mean thickness, Total retinal central subfield (Risuteganib Responder eyes): −0.691 μm | Change in mean thickness, Total retinal foveal center (Risuteganib Responder eyes): 0.804 μm | Change in mean thickness, Total retinal mid subfield (Risuteganib Responder eyes): −1.049 μm | Change in volume, ELM-EZ central subfield (Risuteganib Responder eyes): −0.002 mm^3 | Change in volume, ELM-EZ mid subfield (Risuteganib Responder eyes): −0.003 mm^3 | Change in volume, ELM-RPE (Risuteganib Responder eyes): 0.086 mm^3 | Change in volume, ELM-RPE central subfield (Risuteganib Responder eyes): −0.002 mm^3 | Change in volume, ELM-RPE mid subfield (Risuteganib Responder eyes): −0.007 mm^3 | Change in volume, EZ-RPE (Risuteganib Responder eyes): −0.059 mm^3 | Change in volume, EZ-RPE central subfield (Risuteganib Responder eyes): −0.001 mm^3 | Change in volume, EZ-RPE mid subfield (Risuteganib Responder eyes): −0.004 mm^3 | Change in volume, ONL-EZ central subfield (Risuteganib Responder eyes): −0.004 mm^3 | Change in volume, ONL-EZ mid subfield (Risuteganib Responder eyes): −0.017 mm^3 | Change in volume, ONL-RPE (Risuteganib Responder eyes): 0.009 mm^3 | Change in volume, ONL-RPE central subfield (Risuteganib Responder eyes): −0.005 mm^3 | Change in volume, ONL-RPE mid subfield (Risuteganib Responder eyes): −0.021 mm^3 | Change in volume, RPE-BM (Risuteganib Responder eyes): −0.049 mm^3 | Change in volume, RPE-BM central subfield (Risuteganib Responder eyes): −0.007 mm^3 | Change in volume, RPE-BM mid subfield (Risuteganib Responder eyes): −0.017 mm^3 | Change in volume, Total retinal (Risuteganib Responder eyes): −0.188 mm^3 | Change in volume, Total retinal central subfield (Risuteganib Responder eyes): 0.000 mm^3 | Change in volume, Total retinal mid subfield (Risuteganib Responder eyes): −0.004 mm^3 | Map coverage, 0 μm EZ (Risuteganib Responder eyes): 3.679% | Map coverage, 0 μm RPE-BM (Risuteganib Responder eyes): 1.099% | Map coverage, 10 μm EZ (Risuteganib Responder eyes): 3.699% | Map coverage, 20 μm EZ (Risuteganib Responder eyes): 3.574% | Map coverage, 50 μm RPE-BM (Risuteganib Responder eyes): −3.49% | Map coverage, 150 μm RPE-BM (Risuteganib Responder eyes): 3.335% | Map coverage, 250 μm RPE-BM (Risuteganib Responder eyes): −0.011% | Change in mean thickness, ELM-EZ central subfield (risuteganib arm, n = 24): −1.827 μm | Change in mean thickness, ELM-EZ mid subfield (risuteganib arm, n = 24): −0.106 μm | Change in mean thickness, ELM-RPE central subfield (risuteganib arm, n = 24): −2.912 μm | Change in mean thickness, ELM-RPE foveal center (risuteganib arm, n = 24): −6.094 μm | Change in mean thickness, ELM-RPE mid subfield (risuteganib arm, n = 24): −1.593 μm | Change in mean thickness, EZ-RPE central subfield (risuteganib arm, n = 24): −1.085 μm | Change in mean thickness, EZ-RPE foveal center (risuteganib arm, n = 24): −0.407 μm | Change in mean thickness, EZ-RPE mid subfield (risuteganib arm, n = 24): −1.486 μm | Change in mean thickness, Inner retina central subfield (risuteganib arm, n = 24): 3.880 μm | Change in mean thickness, Inner retina mid subfield (risuteganib arm, n = 24): 3.893 μm | Change in mean thickness, ONL-EZ central subfield (risuteganib arm, n = 24): −6.131 μm | Change in mean thickness, ONL-EZ mid subfield (risuteganib arm, n = 24): −4.954 μm | Change in mean thickness, ONL-RPE central subfield (risuteganib arm, n = 24): −7.216 μm | Change in mean thickness, ONL-RPE foveal center (risuteganib arm, n = 24): −3.488 μm | Change in mean thickness, ONL-RPE mid subfield (risuteganib arm, n = 24): −6.441 μm | Change in mean thickness, RPE-BM central subfield (risuteganib arm, n = 24): −4.178 μm | Change in mean thickness, RPE-BM foveal center (risuteganib arm, n = 24): −8.126 μm | Change in mean thickness, RPE-BM mid subfield (risuteganib arm, n = 24): −2.086 μm | Change in mean thickness, Total retinal central subfield (risuteganib arm, n = 24): −3.336 μm | Change in mean thickness, Total retinal foveal center (risuteganib arm, n = 24): −4.154 μm | Change in mean thickness, Total retinal mid subfield (risuteganib arm, n = 24): −2.548 μm | Change in volume, ELM-EZ central subfield (risuteganib arm, n = 24): −0.001 mm^3 | Change in volume, ELM-EZ mid subfield (risuteganib arm, n = 24): 0.000 mm^3 | Change in volume, ELM-RPE (risuteganib arm, n = 24): 0.048 mm^3 | Change in volume, ELM-RPE central subfield (risuteganib arm, n = 24): −0.002 mm^3 | Change in volume, ELM-RPE mid subfield (risuteganib arm, n = 24): −0.005 mm^3 | Change in volume, EZ-RPE (risuteganib arm, n = 24): −0.027 mm^3 | Change in volume, EZ-RPE central subfield (risuteganib arm, n = 24): −0.001 mm^3 | Change in volume, EZ-RPE mid subfield (risuteganib arm, n = 24): −0.005 mm^3 | Change in volume, ONL-EZ central subfield (risuteganib arm, n = 24): −0.005 mm^3 | Change in volume, ONL-EZ mid subfield (risuteganib arm, n = 24): −0.016 mm^3 | Change in volume, ONL-RPE (risuteganib arm, n = 24): −0.009 mm^3 | Change in volume, ONL-RPE central subfield (risuteganib arm, n = 24): −0.005 mm^3 | Change in volume, ONL-RPE mid subfield (risuteganib arm, n = 24): −0.020 mm^3 | Change in volume, RPE-BM (risuteganib arm, n = 24): −0.006 mm^3 | Change in volume, RPE-BM central subfield (risuteganib arm, n = 24): −0.003 mm^3 | Change in volume, RPE-BM mid subfield (risuteganib arm, n = 24): −0.007 mm^3 | Change in volume, Total retinal (risuteganib arm, n = 24): −0.048 mm^3 | Change in volume, Total retinal central subfield (risuteganib arm, n = 24): −0.002 mm^3 | Change in volume, Total retinal mid subfield (risuteganib arm, n = 24): −0.008 mm^3 | Map coverage, 0 μm EZ (risuteganib arm, n = 24): 2.574% | Map coverage, 0 μm RPE-BM (risuteganib arm, n = 24): 1.282% | Map coverage, 10 μm EZ (risuteganib arm, n = 24): 2.515% | Map coverage, 20 μm EZ (risuteganib arm, n = 24): 2.431% | Map coverage, 50 μm RPE-BM (risuteganib arm, n = 24): −2.644% | Map coverage, 150 μm RPE-BM (risuteganib arm, n = 24): 2.739% | Map coverage, 250 μm RPE-BM (risuteganib arm, n = 24): −0.006% | Change in mean thickness, ELM-EZ central subfield [1]: −1.332 μm | Change in mean thickness, ELM-EZ mid subfield [1]: 0.754 μm | Change in mean thickness, ELM-RPE central subfield [1]: −2.722 μm | Change in mean thickness, ELM-RPE foveal center [1]: −12.189 μm | Change in mean thickness, ELM-RPE mid subfield [1]: −1.044 μm | Change in mean thickness, EZ-RPE central subfield [1]: −1.390 μm | Change in mean thickness, EZ-RPE foveal center [1]: −1.789 μm | Change in mean thickness, EZ-RPE mid subfield [1]: −1.798 μm | Change in mean thickness, Inner retina central subfield [1]: 1.896 μm
